Results: patent US12258328B2, “6-membered heteroaryl-containing aminopyridine compounds as EGFR inhibitors” (YUHAN CORPORATION, priority 2021, dated 2025)
Like-named read-outs stand apart in the source and are kept apart here.

Assays:
EGFR L858R/C797S = EGFR L858R/C797S (Homo sapiens, UniProt P00533, C797S/L858R); assay: Biochemical EGFR kinase assay (Lance Ultra TR-FRET), double mutant L858R/C797S
Outline: (§1)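 In this biochemical assay, phosphorylation after a one-hour room-temperature reaction was detected with europium-labelled anti-phosphopeptide antibody at 2 nM final concentration.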

EGFR del19/T790M/C797S = EGFR del19/T790M/C797S (Homo sapiens, UniProt P00533, C797S/DEL746-750/T790M); assay: Biochemical EGFR kinase assay (Lance Ultra TR-FRET), triple mutant del19/T790M/C797S
Outline: as §1

EGFR L858R/T790M/C797S = EGFR L858R/T790M/C797S (Homo sapiens, UniProt P00533, C797S/L858R/T790M); assay: Biochemical EGFR kinase assay (Lance Ultra TR-FRET), triple mutant L858R/T790M/C797S
Outline: as §1

EGFR wildtype = EGFR wildtype (Homo sapiens, UniProt P00533); assay: Biochemical EGFR kinase assay (Lance Ultra TR-FRET), wildtype
Outline: as §1

EGFR del19/C797S = EGFR del19/C797S (Homo sapiens, UniProt P00533, C797S/DEL746-750); assay: Biochemical EGFR kinase assay (Lance Ultra TR-FRET), double mutant del19/C797S
Outline: as §1

[1] = ATP at Km, read-out: IC50 L858R/C797S, Km ATP
[2] = ATP at Km, read-out: IC50 del19/T790M/C797S, Km ATP
[3] = ATP at Km, read-out: IC50 L858R/T790M/C797S, Km ATP
[4] = ATP at Km, read-out: IC50 WT, Km ATP
[5] = ATP at Km, read-out: IC50 del19/C797S, Km ATP
[6] = IC50 del19/T790M/C797S, 100 μM ATP
[7] = IC50 L858R/T790M/C797S, 100 μM ATP
[8] = Km ATP, read-out: IC50 L858R/C797S (nM) Km ATP
[9] = Km ATP, read-out: IC50 del19/T790M/C797S (nM) Km ATP
[10] = Km ATP, read-out: IC50 L858R/T790M/C797S (nM) Km ATP
[11] = Km ATP, read-out: IC50 WT (nM) Km ATP
[12] = Km ATP, read-out: IC50 del19/C797S (nM) Km ATP
[13] = IC50 L858R/C797S (nM) 100 μM ATP, 100 μM ATP
[14] = IC50 del19/T790M/C797S (nM) 100 μM ATP, 100 μM ATP
[15] = IC50 L858R/T790M/C797S (nM) 100 μM ATP, 100 μM ATP
[16] = IC50 WT (nM) 100 μM ATP, 100 μM ATP
[17] = IC50 del19/C797S (nM) 100 μM ATP, 100 μM ATP

Sequence of EGFR del19/T790M/C797S (P00533 with tags, fused parts or gaps DEL746-750/T790M/C797S): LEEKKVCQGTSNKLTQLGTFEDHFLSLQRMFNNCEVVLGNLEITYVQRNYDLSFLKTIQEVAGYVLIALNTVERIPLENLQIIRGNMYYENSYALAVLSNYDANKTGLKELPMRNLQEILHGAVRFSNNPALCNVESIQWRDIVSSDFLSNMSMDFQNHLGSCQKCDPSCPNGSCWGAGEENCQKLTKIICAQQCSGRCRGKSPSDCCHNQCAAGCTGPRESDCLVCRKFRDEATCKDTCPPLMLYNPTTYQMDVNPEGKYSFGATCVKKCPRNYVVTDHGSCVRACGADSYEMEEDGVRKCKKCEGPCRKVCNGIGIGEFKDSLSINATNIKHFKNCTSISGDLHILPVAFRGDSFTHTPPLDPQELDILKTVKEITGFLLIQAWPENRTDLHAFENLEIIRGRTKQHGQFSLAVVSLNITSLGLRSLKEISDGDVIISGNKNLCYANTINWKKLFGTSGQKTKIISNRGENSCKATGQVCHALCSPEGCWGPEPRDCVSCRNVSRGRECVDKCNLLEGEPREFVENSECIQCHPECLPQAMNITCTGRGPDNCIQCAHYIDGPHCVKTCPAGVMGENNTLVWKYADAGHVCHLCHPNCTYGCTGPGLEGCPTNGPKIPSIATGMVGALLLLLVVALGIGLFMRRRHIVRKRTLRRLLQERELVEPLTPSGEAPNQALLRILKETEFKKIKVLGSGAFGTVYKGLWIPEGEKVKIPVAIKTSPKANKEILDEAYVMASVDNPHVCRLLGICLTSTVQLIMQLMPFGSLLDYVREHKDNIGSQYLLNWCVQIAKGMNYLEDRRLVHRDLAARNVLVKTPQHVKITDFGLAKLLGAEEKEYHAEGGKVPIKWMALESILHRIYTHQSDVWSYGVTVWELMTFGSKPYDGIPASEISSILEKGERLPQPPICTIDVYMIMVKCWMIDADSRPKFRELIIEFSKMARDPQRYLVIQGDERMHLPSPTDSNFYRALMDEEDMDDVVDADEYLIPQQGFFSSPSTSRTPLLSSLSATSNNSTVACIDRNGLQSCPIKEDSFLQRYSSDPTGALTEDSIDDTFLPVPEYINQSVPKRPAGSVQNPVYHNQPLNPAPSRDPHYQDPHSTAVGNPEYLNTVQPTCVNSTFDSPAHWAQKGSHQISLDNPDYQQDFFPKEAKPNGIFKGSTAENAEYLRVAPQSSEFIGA
Sequence of EGFR wildtype (P00533 25-1210): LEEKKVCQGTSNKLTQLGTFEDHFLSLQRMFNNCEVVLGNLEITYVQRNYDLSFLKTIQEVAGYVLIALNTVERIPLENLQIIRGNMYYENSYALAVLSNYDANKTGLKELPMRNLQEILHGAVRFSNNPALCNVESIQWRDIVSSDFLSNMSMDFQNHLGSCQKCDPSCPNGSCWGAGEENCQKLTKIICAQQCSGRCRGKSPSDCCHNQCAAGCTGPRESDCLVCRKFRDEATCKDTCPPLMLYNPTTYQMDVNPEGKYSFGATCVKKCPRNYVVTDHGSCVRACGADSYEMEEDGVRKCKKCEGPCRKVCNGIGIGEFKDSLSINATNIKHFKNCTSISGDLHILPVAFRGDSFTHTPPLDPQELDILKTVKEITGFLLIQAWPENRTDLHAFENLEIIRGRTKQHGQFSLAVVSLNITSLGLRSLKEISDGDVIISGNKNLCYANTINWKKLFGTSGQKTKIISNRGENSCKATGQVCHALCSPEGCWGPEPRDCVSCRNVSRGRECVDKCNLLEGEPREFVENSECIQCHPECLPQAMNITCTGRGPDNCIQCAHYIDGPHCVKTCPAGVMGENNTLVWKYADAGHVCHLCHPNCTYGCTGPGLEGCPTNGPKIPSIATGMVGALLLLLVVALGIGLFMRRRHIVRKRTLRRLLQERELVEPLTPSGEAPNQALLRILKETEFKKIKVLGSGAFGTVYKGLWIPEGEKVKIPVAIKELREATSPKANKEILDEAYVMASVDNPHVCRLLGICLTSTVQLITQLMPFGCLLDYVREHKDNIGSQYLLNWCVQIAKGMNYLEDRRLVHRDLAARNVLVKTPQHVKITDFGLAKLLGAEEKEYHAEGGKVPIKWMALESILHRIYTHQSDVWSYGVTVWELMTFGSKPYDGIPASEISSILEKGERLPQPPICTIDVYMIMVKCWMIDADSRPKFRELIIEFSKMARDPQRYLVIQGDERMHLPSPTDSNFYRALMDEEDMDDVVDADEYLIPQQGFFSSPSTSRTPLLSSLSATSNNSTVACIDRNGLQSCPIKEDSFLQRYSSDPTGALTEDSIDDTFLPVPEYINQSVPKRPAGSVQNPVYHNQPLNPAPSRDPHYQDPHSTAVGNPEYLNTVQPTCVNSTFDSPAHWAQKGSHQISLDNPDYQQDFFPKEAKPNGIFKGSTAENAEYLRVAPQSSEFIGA
Sequence of EGFR del19/C797S (P00533 with tags, fused parts or gaps DEL746-750/C797S): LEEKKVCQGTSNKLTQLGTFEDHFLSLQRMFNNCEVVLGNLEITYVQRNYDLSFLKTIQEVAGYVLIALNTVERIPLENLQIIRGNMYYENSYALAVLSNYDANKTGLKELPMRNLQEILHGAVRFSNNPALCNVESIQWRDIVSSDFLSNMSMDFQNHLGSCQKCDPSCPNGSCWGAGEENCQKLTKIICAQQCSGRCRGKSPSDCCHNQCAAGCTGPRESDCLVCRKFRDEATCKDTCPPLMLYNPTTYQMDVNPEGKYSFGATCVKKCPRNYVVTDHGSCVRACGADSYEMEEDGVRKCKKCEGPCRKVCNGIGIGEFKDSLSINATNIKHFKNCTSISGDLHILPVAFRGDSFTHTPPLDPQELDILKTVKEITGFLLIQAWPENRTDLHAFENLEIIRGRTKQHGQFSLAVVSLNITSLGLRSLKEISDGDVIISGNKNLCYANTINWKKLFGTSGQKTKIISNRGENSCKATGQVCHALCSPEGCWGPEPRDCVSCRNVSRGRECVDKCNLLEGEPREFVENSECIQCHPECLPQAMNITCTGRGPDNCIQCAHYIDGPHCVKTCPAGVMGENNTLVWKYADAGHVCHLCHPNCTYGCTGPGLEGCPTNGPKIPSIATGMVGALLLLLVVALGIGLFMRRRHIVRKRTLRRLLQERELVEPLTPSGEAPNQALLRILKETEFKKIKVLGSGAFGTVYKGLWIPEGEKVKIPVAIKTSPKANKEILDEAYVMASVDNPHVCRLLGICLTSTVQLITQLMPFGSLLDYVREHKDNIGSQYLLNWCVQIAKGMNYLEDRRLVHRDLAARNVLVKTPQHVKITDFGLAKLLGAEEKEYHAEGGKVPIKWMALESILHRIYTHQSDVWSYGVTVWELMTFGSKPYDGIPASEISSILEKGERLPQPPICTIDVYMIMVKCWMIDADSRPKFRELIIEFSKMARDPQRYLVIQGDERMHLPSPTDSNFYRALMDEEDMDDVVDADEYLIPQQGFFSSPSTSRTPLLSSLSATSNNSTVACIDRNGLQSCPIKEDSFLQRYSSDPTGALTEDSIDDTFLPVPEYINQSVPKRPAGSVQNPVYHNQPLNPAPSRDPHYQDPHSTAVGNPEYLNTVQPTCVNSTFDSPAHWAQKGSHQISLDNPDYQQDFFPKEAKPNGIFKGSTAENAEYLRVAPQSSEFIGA
Sequence of EGFR L858R/C797S (P00533 25-1210 C797S/L858R): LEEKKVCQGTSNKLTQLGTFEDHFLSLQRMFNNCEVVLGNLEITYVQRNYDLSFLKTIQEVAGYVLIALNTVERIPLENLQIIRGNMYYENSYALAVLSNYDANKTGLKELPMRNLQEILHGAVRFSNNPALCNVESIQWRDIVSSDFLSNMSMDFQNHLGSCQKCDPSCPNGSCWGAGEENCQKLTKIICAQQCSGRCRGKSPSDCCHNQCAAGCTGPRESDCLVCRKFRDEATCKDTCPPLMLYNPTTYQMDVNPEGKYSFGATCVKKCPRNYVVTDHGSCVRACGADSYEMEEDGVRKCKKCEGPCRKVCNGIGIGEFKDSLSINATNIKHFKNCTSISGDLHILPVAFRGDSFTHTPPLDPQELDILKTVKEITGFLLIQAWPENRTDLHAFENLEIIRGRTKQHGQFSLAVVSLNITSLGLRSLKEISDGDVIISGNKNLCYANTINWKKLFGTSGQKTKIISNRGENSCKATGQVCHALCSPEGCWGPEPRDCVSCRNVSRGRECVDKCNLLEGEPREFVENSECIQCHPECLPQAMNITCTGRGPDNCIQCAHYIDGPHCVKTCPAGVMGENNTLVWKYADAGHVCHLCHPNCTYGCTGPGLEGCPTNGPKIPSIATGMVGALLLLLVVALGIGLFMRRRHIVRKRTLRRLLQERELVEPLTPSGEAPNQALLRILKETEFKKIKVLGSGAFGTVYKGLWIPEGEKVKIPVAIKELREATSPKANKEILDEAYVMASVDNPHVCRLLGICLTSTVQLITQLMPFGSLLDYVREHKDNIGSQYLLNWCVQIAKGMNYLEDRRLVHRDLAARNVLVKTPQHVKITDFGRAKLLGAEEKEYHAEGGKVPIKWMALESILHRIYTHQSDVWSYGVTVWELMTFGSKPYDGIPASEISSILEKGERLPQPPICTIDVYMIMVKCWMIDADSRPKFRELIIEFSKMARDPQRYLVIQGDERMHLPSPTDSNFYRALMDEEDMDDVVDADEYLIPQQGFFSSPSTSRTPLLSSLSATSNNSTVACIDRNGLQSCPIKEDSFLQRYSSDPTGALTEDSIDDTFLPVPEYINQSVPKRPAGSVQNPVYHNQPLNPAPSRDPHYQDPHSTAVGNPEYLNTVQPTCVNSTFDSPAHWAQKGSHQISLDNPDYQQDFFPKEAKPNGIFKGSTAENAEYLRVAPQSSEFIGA

Row | Structure (SMILES) | IC50 (EGFR L858R/C797S; [1]) | IC50 (EGFR del19/T790M/C797S; [2]) | IC50 (EGFR L858R/T790M/C797S; [3]) | IC50 (EGFR wildtype; [4]) | IC50 (EGFR del19/C797S; [5]) | IC50 (EGFR L858R/C797S; IC50 L858R/C797S, 100 μM ATP) | IC50 (EGFR del19/T790M/C797S; [6]) | IC50 (EGFR L858R/T790M/C797S; [7]) | IC50 (EGFR wildtype; IC50 WT, 100 μM ATP) | IC50 (EGFR del19/C797S; IC50 del19/C797S, 100 μM ATP) | IC50 (EGFR L858R/C797S; [8]) | IC50 (EGFR del19/T790M/C797S; [9]) | IC50 (EGFR L858R/T790M/C797S; [10]) | IC50 (EGFR wildtype; [11]) | IC50 (EGFR del19/C797S; [12]) | IC50 (EGFR L858R/C797S; [13]) | IC50 (EGFR del19/T790M/C797S; [14]) | IC50 (EGFR L858R/T790M/C797S; [15]) | IC50 (EGFR wildtype; [16]) | IC50 (EGFR del19/C797S; [17])
1 | CN1CCC(Oc2ccc(-c3cnc(Nc4ccnc(-c5cnn(S(=O)(=O)C6CC6)c5)n4)cc3N[C@H]3CC[C@@](C)(O)CC3)nc2)CC1 [Example 250, (1s,4s)-4-((6′-((2-(1-(Cyclopropylsulfonyl)-1H-pyrazol-4-yl)pyrimidin-4-yl)amino)-5-((1-methylpiperidin-4-yl)oxy)-[2,3′-bipyridin]-4′-yl)amino)-1-methylcyclohexan-1-ol] | 0.4 nM | 0.4 nM | 0.2 nM | 0.3 nM | 0.4 nM | – | – | – | – | – | – | – | – | – | – | – | – | – | – | –
2 | CC(C)(O)[C@H]1CC[C@@H](Nc2cc(Nc3ccnc(-c4cnn(S(=O)(=O)C5CC5)c4)n3)ncc2-c2ccc(S(C)(=O)=O)cn2)CC1 [Example 160, 2-((1s,4s)-4-((6′-((2-(1-(Cyclopropylsulfonyl)-1H-pyrazol-4-yl)pyrimidin-4-yl)amino)-5-(methylsulfonyl)-[2,3′-bipyridin]-4′-yl)amino)cyclohexyl)propan-2-ol] | 3 nM | 0.5 nM | 0.2 nM | 5.1 nM | 0.5 nM | 15 nM | 0.8 nM | 0.7 nM | > 10000 nM | 1.3 nM | – | – | – | – | – | – | – | – | – | –
3 | O=S(=O)(C1CC1)n1cc(-c2nccc(Nc3cc(NC4CCC(F)(F)CC4)c(-c4ccc(N5CCC(F)(F)CC5)nn4)cn3)n2)cn1 [Example 268, N^2-(2-(1-(Cyclopropylsulfonyl)-1H-pyrazol-4-yl)pyrimidin-4-yl)-N^4-(4,4-difluorocyclohexyl)-5-(6-(4,4-difluoropiperidin-1-yl)pyridazin-3-yl)pyridine-2,4-diamine] | 1220 nM | 28.9 nM | 22.4 nM | 4770 nM | 762 nM | – | – | – | – | – | – | – | – | – | – | – | – | – | – | –
4 | C[C@]1(O)CC[C@@H](Nc2cc(Nc3ccnc(-c4cnn(S(=O)(=O)C5CC5)c4)n3)ncc2-c2cnc(C(F)(F)F)cn2)CC1 [Example 134, (1s,4s)-4-((2-((2-(1-(Cyclopropylsulfonyl)-1H-pyrazol-4-yl)pyrimidin-4-yl)amino)-5-(5-(trifluoromethyl)pyrazin-2-yl)pyridin-4-yl)amino)-1-methylcyclohexan-1-ol] | – | – | – | – | – | – | – | – | – | – | 15.6 nM | 0.9 nM | 0.6 nM | 34.2 nM | 32.1 nM | – | – | – | – | –
5 | C[C@]1(O)CC[C@@H](Nc2cc(Nc3ccnc(-c4cnn(S(=O)(=O)C5CC5)c4)n3)ncc2-c2ccc(N3CCOCC3)nn2)CC1 [Example 43, (1s,4s)-4-((2-((2-(1-(Cyclopropylsulfonyl)-1H-pyrazol-4-yl)pyrimidin-4-yl)amino)-5-(6-morpholinopyridazin-3-yl)pyridin-4-yl)amino)-1-methylcyclohexan-1-ol] | – | – | – | – | – | – | – | – | – | – | 0.6 nM | 0.1 nM | 0.1 nM | 2 nM | 0.4 nM | 1.6 nM | 2.5 nM | 2.7 nM | 1560 nM | 0.5 nM
6 | CN(C)S(=O)(=O)n1cc(-c2nccc(Nc3cc(NC4CCC(C)(O)CC4)c(-c4ccc(C(O)C(F)(F)F)cn4)cn3)n2)cn1 (stereo not drawn) [Example 297, 4-(4-((4′-(((1s,4s)-4-Hydroxy-4-methylcyclohexyl)amino)-5-(2,2,2-trifluoro-1-hydroxyethyl)-[2,3′-bipyridin]-6′-yl)amino)pyrimidin-2-yl)-N,N-dimethyl-1H-pyrazole-1-sulfonamide] | 3 nM | 1.6 nM | 1.4 nM | 39.9 nM | 4 nM | – | – | – | – | – | – | – | – | – | – | – | – | – | – | –
7 | CN1CCC(Oc2cnc(-c3cnc(Nc4ccnc(-c5cnn(S(=O)(=O)C6CC6)c5)n4)cc3N[C@H]3CC[C@@H](F)CC3)cn2)CC1 [Example 144, N^2-(2-(1-(Cyclopropylsulfonyl)-1H-pyrazol-4-yl)pyrimidin-4-yl)-N^4-((1s,4s)-4-fluorocyclohexyl)-5-(5-((1-methylpiperidin-4-yl)oxy)pyrazin-2-yl)pyridine-2,4-diamine] | – | – | – | – | – | – | – | – | – | – | 1.2 nM | 0.3 nM | 0.1 nM | 26.3 nM | 2.2 nM | – | – | – | – | –
8 | C[C@]1(O)CC[C@@H](Nc2cc(Nc3ccnc(-c4cnn(S(=O)(=O)C5CC5)c4)n3)ncc2-c2cc(CN3CCC(F)(F)CC3)ccn2)CC1 [Example 112, (1s,4s)-4-((6′-((2-(1-(Cyclopropylsulfonyl)-1H-pyrazol-4-yl)pyrimidin-4-yl)amino)-4-((4,4-difluoropiperidin-1-yl)methyl)-[2,3′-bipyridin]-4′-yl)amino)-1-methylcyclohexan-1-ol] | – | – | – | – | – | – | – | – | – | – | 6.8 nM | 4.5 nM | 2 nM | 11.7 nM | 5.1 nM | 6.9 nM | 5.7 nM | 3.6 nM | > 10000 nM | 23.2 nM
9 | CC(C)(O)[C@H]1CC[C@@H](Nc2cc(Nc3ccnc(-c4cnn(S(=O)(=O)C5CC5)c4)n3)ncc2-c2ccc(CC(F)(F)F)cn2)CC1 [Example 220, 2-((1s,4s)-4-((6′-((2-(1-(Cyclopropylsulfonyl)-1H-pyrazol-4-yl)pyrimidin-4-yl)amino)-5-(2,2,2-trifluoroethyl)-[2,3′-bipyridin]-4′-yl)amino)cyclohexyl)propan-2-ol] | 25.9 nM | 8.5 nM | 5.4 nM | 115 nM | 27.8 nM | 289 nM | 2.3 nM | 9.3 nM | > 10000 nM | 30.5 nM | – | – | – | – | – | – | – | – | – | –
10 | CN1CCC(Oc2ccc(-c3cnc(Nc4ccnc(-c5cnn(S(=O)(=O)C6CC6)c5)n4)cc3NC3CCN(CC(F)F)CC3)nc2)CC1 [Example 258, N^6′-(2-(1-(Cyclopropylsulfonyl)-1H-pyrazol-4-yl)pyrimidin-4-yl)-N^4′-(1-(2,2-difluoroethyl)piperidin-4-yl)-5-((1-methylpiperidin-4-yl)oxy)-[2,3′-bipyridine]-4′,6′-diamine] | 0.1 nM | 0.2 nM | 0.1 nM | 14.1 nM | 0.7 nM | – | – | – | – | – | – | – | – | – | – | – | – | – | – | –
11 | O=S(=O)(C1CC1)n1cc(-c2nccc(Nc3cc(N[C@H]4CC[C@H](CCO)CC4)c(-c4ccc(C(F)F)cn4)cn3)n2)cn1 [Example 95, 2-((1r,4r)-4-((6′-((2-(1-(Cyclopropylsulfonyl)-1H-pyrazol-4-yl)pyrimidin-4-yl)amino)-5-(difluoromethyl)-[2,3′-bipyridin]-4′-yl)amino)cyclohexyl)ethan-1-ol] | – | – | – | – | – | – | – | – | – | – | 8480 nM | 2.5 nM | 0.9 nM | 222 nM | 66.9 nM | 9160 nM | 5.6 nM | 2 nM | > 10000 nM | 1540 nM
12 | C[C@]1(O)CC[C@@H](Nc2cc(Nc3ccnc(-c4cnn(S(=O)(=O)C5CC5)c4)n3)ncc2-c2ncccc2OCC(F)F)CC1 [Example 334, (1s,4s)-4-((6′-((2-(1-(Cyclopropylsulfonyl)-1H-pyrazol-4-yl)pyrimidin-4-yl)amino)-3-(2,2-difluoroethoxy)-[2,3′-bipyridin]-4′-yl)amino)-1-methylcyclohexan-1-ol] | – | – | – | – | – | – | – | – | – | – | 191 nM | 2.1 nM | 1.4 nM | 189 nM | 170 nM | – | – | – | – | –
13 | CN(C)Cc1cccc(-c2cnc(Nc3ccnc(-c4cnn(S(=O)(=O)C5CC5)c4)n3)cc2N[C@H]2CC[C@@](C)(O)CC2)n1 [Example 30, (1s,4s)-4-((6′-((2-(1-(Cyclopropylsulfonyl)-1H-pyrazol-4-yl)pyrimidin-4-yl)amino)-6-((dimethylamino)methyl)-[2,3′-bipyridin]-4′-yl)amino)-1-methylcyclohexan-1-ol] | – | – | – | – | – | – | – | – | – | – | – | – | – | – | – | 2 nM | 0.1 nM | 0.1 nM | 2910 nM | 0.4 nM
14 | O=S(=O)(C1CC1)n1cc(-c2nccc(Nc3cc(N[C@H]4CC[C@H](CCO)CC4)c(-c4cc(C(F)F)ccn4)cn3)n2)cn1 [Example 96, 2-((1r,4r)-4-((6′-((2-(1-(Cyclopropylsulfonyl)-1H-pyrazol-4-yl)pyrimidin-4-yl)amino)-4-(difluoromethyl)-[2,3′-bipyridin]-4′-yl)amino)cyclohexyl)ethan-1-ol] | – | – | – | – | – | – | – | – | – | – | 27.4 nM | – | 0.7 nM | 84.7 nM | 68 nM | 2220 nM | 2 nM | 0.8 nM | > 10000 nM | 224 nM
